Test results from PubChem BioAssay AID274 (DTP/NCI, 2004).
Several values for one entry are separate records, joined by “and”; a condition that tells them apart may be missing. Equal values may be shown once. Toxic doses and inconclusive results are not listed.

System: BDF1 mice, Lewis lung carcinoma iv, survival T/C
Assay: NCI In Vivo Anticancer Drug Screen. Data for tumor model Lewis Lung Carcinoma (intravenous) in B6D2F1 (BDF1) mice
Conditions: endpoint: median survival time, higher = longer survival
Protocol: The antitumor activity of compounds was measured in mice bearing transplantable tumors. Survival or tumor size were measured and the results are expressed as the measurement made in the treated group (T) divided by the measurement made in the vehicle treated control group (C). The tumor model used in this assay is Lewis Lung Carcinoma (intravenous) in B6D2F1 (BDF1) mice

[1] = dose: 50.0 mg/kg/injection, schedule: Q01DX009 (ip), vehicle: saline with Tween-80
[2] = dose: 100.0 mg/kg/injection, schedule: Q01DX009 (ip), vehicle: saline with Tween-80
[3] = dose: 200.0 mg/kg/injection, schedule: Q01DX009 (ip), vehicle: saline with Tween-80
[4] = dose: 6.25 mg/kg/injection, schedule: Q01DX009 (ip), vehicle: saline with Tween-80
[5] = dose: 12.5 mg/kg/injection, schedule: Q01DX009 (ip), vehicle: saline with Tween-80
[6] = dose: 12.5 mg/kg/injection, schedule: Q01DX009 (ip), vehicle: Klucel (hydroxypropylcellulose) (HPC)
[7] = dose: 25.0 mg/kg/injection, schedule: Q01DX009 (ip), vehicle: Klucel (hydroxypropylcellulose) (HPC)
[8] = dose: 50.0 mg/kg/injection, schedule: Q01DX009 (ip), vehicle: Klucel (hydroxypropylcellulose) (HPC)
[9] = dose: 100.0 mg/kg/injection, schedule: Q01DX009 (ip), vehicle: Klucel (hydroxypropylcellulose) (HPC)
[10] = dose: 200.0 mg/kg/injection, schedule: Q01DX009 (ip), vehicle: Klucel (hydroxypropylcellulose) (HPC)
[11] = dose: 400.0 mg/kg/injection, schedule: Q01DX009 (ip), vehicle: Klucel (hydroxypropylcellulose) (HPC)
[12] = dose: 25.0 mg/kg/injection, schedule: Q01DX009 (ip), vehicle: saline with Tween-80
[13] = dose: 100.0 mg/kg/injection, schedule: Q01DX009 (ip), vehicle: saline
[14] = dose: 200.0 mg/kg/injection, schedule: Q01DX009 (ip), vehicle: saline
[15] = dose: 400.0 mg/kg/injection, schedule: Q01DX009 (ip), vehicle: saline
[16] = dose: 400.0 mg/kg/injection, schedule: Q01DX009 (ip), vehicle: saline with Tween-80

For `CN(C)c1nc(N(C)C)nc(N(C)C)n1`, the T/C [1] was 99 % of control, the T/C (dose: 59.0 mg/kg/injection, schedule: Q04DX003 (ip), vehicle: saline) was 102 % of control and the T/C (dose: 88.0 mg/kg/injection, schedule: Q04DX003 (ip), vehicle: saline) was 97 % of control. For the same compound, the T/C [2] was 154 % of control, the T/C (dose: 133.0 mg/kg/injection, schedule: Q04DX003 (ip), vehicle: Klucel (hydroxypropylcellulose) (HPC)) was 90 % of control and the T/C (dose: 133.0 mg/kg/injection, schedule: Q04DX003 (ip), vehicle: saline) was 101 % of control and 109 % of control. The T/C [3] was 92 % of control, the T/C (dose: 200.0 mg/kg/injection, schedule: Q04DX003 (ip), vehicle: Klucel (hydroxypropylcellulose) (HPC)) was 114 % of control and the T/C (dose: 200.0 mg/kg/injection, schedule: Q04DX003 (ip), vehicle: saline) was 96 % of control and 105 % of control. The T/C (dose: 300.0 mg/kg/injection, schedule: Q04DX003 (ip), vehicle: saline) was 95 % of control and 105 % of control, the T/C (dose: 450.0 mg/kg/injection, schedule: Q04DX003 (ip), vehicle: saline) was 104 % of control and the T/C (dose: 675.0 mg/kg/injection, schedule: Q04DX003 (ip), vehicle: saline) was 105 % of control.
In the case of `Cc1ccc[c]([Hg][Cl])c1N=Nc1ccccc1`, the T/C (dose: 0.78 mg/kg/injection, schedule: Q01DX009 (ip), vehicle: saline with Tween-80) is reported as 100 % of control, the T/C (dose: 1.56 mg/kg/injection, schedule: Q01DX009 (ip), vehicle: saline with Tween-80) is reported as 105 % of control and the T/C (dose: 3.12 mg/kg/injection, schedule: Q01DX009 (ip), vehicle: saline with Tween-80) is reported as 90 % of control. The T/C [4] was 115 % of control and the T/C [5] was 94 % of control.
For `COc1ccc2ccccc2c1C1NC(=O)c2ccccc2N1` (stereo not given), the T/C [6] was 90 % of control, the T/C [7] was 92 % of control and the T/C [8] was 92 % of control. For the same compound, the T/C [9] was 96 % of control, the T/C [10] was 98 % of control and the T/C [11] was 102 % of control.
In the case of `COc1ccc(C(Cn2ccnc2)Sc2ccc(Cl)c(Cl)c2)cc1` (stereo not given), the T/C [4] is reported as 95 % of control, the T/C [5] is reported as 97 % of control and the T/C [12] is reported as 96 % of control. The T/C [1] was 100 % of control.
`C[CH2][Ge]([CH2]C)[CH2]C.C[CH2][Ge]([CH2]C)[CH2]C.C[CH2][Ge]([CH2]C)[O][Ge]([CH2]C)[CH2]C` was tested, and the T/C [4] was 97 % of control, the T/C [5] was 96 % of control and the T/C [12] was 103 % of control. The T/C [1] was 100 % of control.
In the case of `C[C@H](CCC(=O)O)[C@H]1CC[C@H]2[C@@H]3[C@H](O)C[C@@H]4C[C@H](O)CC[C@]4(C)[C@H]3C[C@H](O)[C@]12C` (tested in a mixture with another compound), the T/C [1] is reported as 109 % of control, the T/C [2] is reported as 108 % of control and the T/C [3] is reported as 121 % of control.
In the case of `O=Cc1ccc(C=O)c(Cl)c1`, the T/C [8] is reported as 101 % of control, the T/C [9] is reported as 100 % of control and the T/C [10] is reported as 105 % of control. For the same compound, the T/C [11] was 95 % of control.
For `C1CN1c1nc(N2CC2)nc(N2CC2)n1`, the T/C (dose: 0.06 mg/kg/injection, schedule: Q01DX009 (ip), vehicle: suspension in saline) was 105 % of control, the T/C (dose: 0.12 mg/kg/injection, schedule: Q01DX009 (ip), vehicle: suspension in saline) was 101 % of control and the T/C (dose: 0.25 mg/kg/injection, schedule: Q01DX009 (ip), vehicle: suspension in saline) was 112 % of control.
`COC(=O)c1cc2cc3c(c(O)c2c(=O)o1)OC1(Cc2c(O)c4c(c(O)c2O1)C(=O)C(OC)CC4=O)CC3O` (stereo not given) was tested, and the T/C (dose: 3.13 mg/kg/injection, schedule: Q01DX009 (ip), vehicle: saline with Tween-80) was 102 % of control, the T/C [4] was 110 % of control and the T/C [5] was 122 % of control. The T/C [12] was 120 % of control.
For `Nc1nc(N)c(N=O)c(Nc2ccc(I)cc2)n1`, the T/C [1] was 97 % of control, the T/C [2] was 95 % of control and the T/C [3] was 95 % of control.
`Nc1ncn(C2OC(CO)C(O)C2O)c(=O)n1` (stereo not given) was tested, and the T/C (dose: 0.37 mg/kg/injection, schedule: Q01DX009 (ip), vehicle: saline) was 100 % of control, the T/C (dose: 0.75 mg/kg/injection, schedule: Q01DX009 (ip), vehicle: saline) was 113 % of control and 119 % of control and the T/C (dose: 1.5 mg/kg/injection, schedule: Q01DX009 (ip), vehicle: saline) was 109 % of control and 115 % of control. For the same compound, the T/C (dose: 12.5 mg/kg/injection, schedule: Q01DX009 (ip), vehicle: suspension in saline) was 115 % of control, the T/C (dose: 25.0 mg/kg/injection, schedule: Q01DX009 (ip), vehicle: suspension in saline) was 124 % of control and the T/C (dose: 400.0 mg/kg/injection, schedule: Q01DX009 (ip), vehicle: suspension in saline) was 175 % of control.
In the case of `Nc1n[nH]c(N)n1`, the T/C [13] is reported as 90 % of control, the T/C [14] is reported as 103 % of control and the T/C [15] is reported as 96 % of control. The T/C (dose: 800.0 mg/kg/injection, schedule: Q01DX009 (ip), vehicle: saline) was 119 % of control.
In the case of `[CH3][Sn]([CH3])([Cl])[S]CCN`, the T/C (dose: 3.12 mg/kg/injection, schedule: Q01DX009 (ip), vehicle: saline) is reported as 91 % of control, the T/C (dose: 6.25 mg/kg/injection, schedule: Q01DX009 (ip), vehicle: saline) is reported as 95 % of control and the T/C (dose: 12.5 mg/kg/injection, schedule: Q01DX009 (ip), vehicle: saline) is reported as 97 % of control. The T/C (dose: 25.0 mg/kg/injection, schedule: Q01DX009 (ip), vehicle: saline) was 91 % of control.
For `Cc1ccc(Cl)c2ccccc12`, the T/C [1] was 98 % of control, the T/C [2] was 98 % of control and the T/C [3] was 107 % of control.
With `COC1/C=C/O[C@@]2(C)Oc3c(C)c(O)c4c(O)c(cc(O)c4c3C2=O)NC(=O)/C(C)=C\C=C\[C@H](C)C(O)[C@@H](C)[C@@H](O)[C@@H](C)[C@H](OC(C)=O)[C@@H]1C` (stereo not given in full) the T/C [5] was 102 % of control, the T/C [12] was 101 % of control and the T/C [1] was 103 % of control. For the same compound, the T/C [2] was 107 % of control, the T/C [3] was 102 % of control and the T/C [16] was 111 % of control.
With `COC1/C=C/C=C(/C)Cc2cc(O)c(Cl)c(c2)N(C)C(=O)CC(OC(=O)C(C)C)C2(C)OC2C(C)C2CC1(O)NC(=O)O2` (stereo not given) the T/C (dose: 0.12 mg/kg/injection, schedule: Q01DX009 (ip), vehicle: saline + alcohol) was 106 % of control, the T/C (dose: 0.25 mg/kg/injection, schedule: Q01DX009 (ip), vehicle: saline + alcohol) was 110 % of control and the T/C (dose: 0.5 mg/kg/injection, schedule: Q01DX009 (ip), vehicle: saline + alcohol) was 105 % of control. For the same compound, the T/C (dose: 1.0 mg/kg/injection, schedule: Q01DX009 (ip), vehicle: saline + alcohol) was 105 % of control.
In the case of `COCCOC`, the T/C [13] is reported as 100 % of control, the T/C [14] is reported as 102 % of control and the T/C [15] is reported as 100 % of control.
`O=C(O)c1ccc(C(=O)O)c(C(=O)O)c1.[NH-]C1CCCCC1[NH-].[Pt+2]` was tested, and the T/C (dose: 0.39 mg/kg/injection, schedule: Q01DX009 (ip), vehicle: sodium bicarbonate) was 90 % of control, the T/C (dose: 0.78 mg/kg/injection, schedule: Q01DX009 (ip), vehicle: sodium bicarbonate) was 100 % of control and the T/C (dose: 1.56 mg/kg/injection, schedule: Q01DX009 (ip), vehicle: sodium bicarbonate) was 112 % of control. For the same compound, the T/C (dose: 3.12 mg/kg/injection, schedule: Q01DX009 (ip), vehicle: sodium bicarbonate) was 122 % of control.
`O=c1oc2c(O)c(O)cc3c(=O)oc4c(O)c(O)cc1c4c23` was tested, and the T/C [6] was 102 % of control, the T/C [7] was 112 % of control and the T/C [8] was 116 % of control. For the same compound, the T/C [9] was 111 % of control and the T/C [11] was 121 % of control.
With `CCCCC(=O)OCC(=O)[C@]1(O)Cc2c(O)c3c(c(O)c2[C@@H](OC2CC(NC(=O)C(F)(F)F)C(O)C(C)O2)C1)C(=O)c1c(OC)cccc1C3=O` (stereo not given in full) the T/C (dose: 4.0 mg/kg/injection, schedule: Q01DX009 (ip), vehicle: distilled water + Tween-80) was 100 % of control, the T/C (dose: 8.0 mg/kg/injection, schedule: Q01DX009 (ip), vehicle: distilled water + Tween-80) was 102 % of control and the T/C (dose: 16.0 mg/kg/injection, schedule: Q01DX009 (ip), vehicle: distilled water + Tween-80) was 121 % of control.
In the case of `COc1cc(OC)c(OC)cc1/C=C\c1ccnc2ccccc12`, the T/C [7] is reported as 113 % of control, the T/C [8] is reported as 105 % of control and the T/C [9] is reported as 100 % of control. For the same compound, the T/C [10] was 107 % of control.
For `O=C(O)CC[S-].[Ag+]`, the T/C [1] was 99 % of control, the T/C [2] was 102 % of control and the T/C [3] was 91 % of control.
`O=C1N(Cl)C(=O)C(c2ccc(Cl)cc2)(c2ccc(Cl)cc2)N1Cl` was tested, and the T/C [5] was 101 % of control, the T/C [12] was 96 % of control and the T/C [1] was 103 % of control. The T/C [2] was 101 % of control, the T/C [3] was 103 % of control and the T/C [16] was 113 % of control.
`O=C(Nc1nncs1)c1cccs1` was tested, and the T/C [5] was 95 % of control, the T/C [12] was 104 % of control and the T/C [1] was 92 % of control. The T/C [2] was 94 % of control, the T/C [3] was 98 % of control and the T/C [16] was 95 % of control.
In the case of `O=C1NC(=O)/C(=C/C=C/c2ccccc2)S1`, the T/C [5] is reported as 95 % of control, the T/C [12] is reported as 104 % of control and the T/C [1] is reported as 101 % of control. The T/C [2] was 95 % of control, the T/C [3] was 105 % of control and the T/C [16] was 104 % of control.
